Assay [1] concerns ERK1/2 MAPK. Kind of assay: GDNF-induced ERK1/2 MAPK signaling activation in U251 cells (Western blot, phospho ERK1/2). The class given is cell-based, human. As to conditions: GDNF 100 ng/ml. On the procedure:
FIG. 18. GDNF-induced signaling activation in U251 human glioblastoma cells. Control and GDNF stimulated U251 cells were lysed with 2% SDS. Total protein lysates were quantified using microBCA protein assay (Pierce, Rockford, Ill., USA). Total protein (10 μg) were separated by SDS-PAGE and probed with antibodies against phospho ERK1/2 (Cell […] Technologies, Danvers, Mass., USA). The blots were striped in Western Blot Stripping Buffer (Pierce) and re-probed with total ERK1/2 (Cell Signaling Technologies) to verify equal loading. Chemiluminescence was imaged and analyzed by ChemiDoc system (Bio-Rad). A) Time-course of ERK1/2 MAPK activation by GDNF (100 ng/ml) in U251 cells. B) GDNF-induced ERK1/2 MAPK activation was inhibited by pre-treatment of MEK inhibitor U0126 (5 μM).
Human glioblastoma cell lines A172 and U251 were cultured in DMEM supplemented with 10% fetal bovine serum (FBS, Sigma) and antibiotics (100 U/ml penicillin and 100 μg/ml streptomycin) in a 5% CO2 humidified incubator at 37° C. U251 cells were seeded at 200,000 cells per well in E-well plate for 24 h and incubated with FBS-free DMEM medium for 12-16 h. The cells were then stimulated with 100 ng/ml of GDNF for defined periods of time in DMEM. […] The extracted RNA samples were then quantified using spectrophotometry and the integrity examined by denaturing RNA gel electrophoresis.
A general note: In western blotting, separated proteins are transferred to a membrane and probed.

Assay [2] deals with miRNA expression in U251 cells. The assay can be described thus: GDNF-regulated miRNA expression in U251 cells quantified by hemi-nested real-time RT-PCR. The format is cell-based, human. The protocol:
Human glioblastoma cell lines A172 and U251 were cultured in DMEM supplemented with 10% fetal bovine serum (FBS, Sigma) and antibiotics (100 U/ml penicillin and 100 μg/ml streptomycin) in a 5% CO2 humidified incubator at 37° C. U251 cells were seeded at 200,000 cells per well in E-well plate for 24 h and incubated with FBS-free DMEM medium for 12-16 h. The cells were then stimulated with 100 ng/ml of GDNF for defined periods of time in DMEM. For MEK inhibitor studies, the cells were pre-incubated with 5 μM U0126 (Promega, Madison, Wis., USA) for 45 min in DMEM prior to GDNF stimulations. Total RNA from untreated or GDNF treated glioblastoma cells was isolated using TRIzol reagent (Invitrogen) in the presence of 20 μg/ml linear acrylamide (Ambion) according to the manufacturer's instructions. The extracted RNA samples were then quantified using spectrophotometry and the integrity examined by denaturing RNA gel electrophoresis. […]
Real-time PCR was performed on the CFX96 system (Bio-Rad, Hercules, Calif., USA) using SYBR GREEN™ I. Real-time PCR for precursor miRNA and U6 snRNA was performed according to previous reports (Schmittgen et al., 2004; Jiang et al., 2005). […] The threshold cycles (Ct) were calculated automatically using the CFX manager software (Bio-Rad). […]
Background: Quantitative PCR measures a nucleic acid by following its amplification.

Assay [3] has as its target Taq polymerase (Thermus aquaticus, UniProt P19821). As to conditions: cited from earlier work.

Sequence of Taq polymerase (P19821 whole entry): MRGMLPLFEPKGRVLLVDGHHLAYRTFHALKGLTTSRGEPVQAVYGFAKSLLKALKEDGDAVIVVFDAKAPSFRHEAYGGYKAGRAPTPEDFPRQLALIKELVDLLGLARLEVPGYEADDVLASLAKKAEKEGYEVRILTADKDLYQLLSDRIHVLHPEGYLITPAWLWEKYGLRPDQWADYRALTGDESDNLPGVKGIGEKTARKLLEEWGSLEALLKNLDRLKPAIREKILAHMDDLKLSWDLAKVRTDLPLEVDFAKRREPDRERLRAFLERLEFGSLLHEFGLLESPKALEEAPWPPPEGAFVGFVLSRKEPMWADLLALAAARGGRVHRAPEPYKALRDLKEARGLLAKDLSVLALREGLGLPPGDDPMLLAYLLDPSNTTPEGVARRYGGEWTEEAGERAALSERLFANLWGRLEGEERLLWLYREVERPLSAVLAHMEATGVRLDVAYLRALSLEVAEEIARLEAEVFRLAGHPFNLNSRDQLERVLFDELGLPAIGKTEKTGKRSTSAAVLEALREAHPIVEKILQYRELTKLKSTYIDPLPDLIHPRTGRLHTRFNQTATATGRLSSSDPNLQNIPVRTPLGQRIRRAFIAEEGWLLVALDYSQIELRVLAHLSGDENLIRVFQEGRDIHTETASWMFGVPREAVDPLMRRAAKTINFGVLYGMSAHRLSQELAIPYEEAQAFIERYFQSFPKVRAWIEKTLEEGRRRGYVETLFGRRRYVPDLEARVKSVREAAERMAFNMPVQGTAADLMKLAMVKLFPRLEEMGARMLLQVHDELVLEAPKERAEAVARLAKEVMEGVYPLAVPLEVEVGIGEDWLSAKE

In the case of `N#CC(=C(/N)Sc1ccccc1N)/C(C#N)=C(\N)Sc1ccccc1N` [U0126], the “inhibition of GDNF-induced ERK1/2 MAPK activation” value in assay [1] (U251 cells, pre-treatment with U0126 5 μM) is on record as “inhibited”. Moreover, in assay [2] (pretreatment with U0126, 24-plex assay), the “inhibition of GDNF-induced up-regulation of the 6 miRNAs” value is “effectively inhibited”.

`Nc1ccc([C@H]2C[C@H](O)[C@@H](COP(=O)(O)OP(=O)(O)OP(=O)(O)O)O2)cn1` [d*CTP, 2-amino-5-(2′-deoxy-b-D-ribofuranosyl)pyridine-5′-triphosphate]: the “inhibition in PCR catalysed by Taq polymerase” value in assay [3] is listed as “strong inhibition”.

For `Cc1cc([C@H]2C[C@H](O)[C@@H](COP(=O)(O)OP(=O)(O)OP(=O)(O)O)O2)c[nH]c1=O` [d*TTP, 5-(2′-deoxy-b-D-ribofuranosyl)-3-methyl-2-pyridone-5′-triphosphate], the “inhibition in PCR catalysed by Taq polymerase” value in assay [3] was “strong inhibition”.

B1: GDNF: GDNF used to stimulate U251 glioblastoma cells at 100 ng/ml (protein, UniProt P39905 78-211, looked up)
Glial cell line-derived …: SPDKQMAVLPRRERNRQAAAANPENSRGKGRRGQRGKNRGCVLTAIHLNVTDLGLGYETKEELIFRYCSGSCDAAETTYDKILKNLSRNRRLVSDKVGQACCRPIAFDDDLSFLDDNLVYHILRKHSAKRCGCI
As for B1, in assay [1] (U251 human glioblastoma cells, time-course), the “activation of ERK1/2 MAPK” value is reported as “induced time-dependent activation of ERK1/2 MAPK”. Further, the “regulation of miRNA expression (miR-7, -21, -218, let-7f, -7g, -7i), fold change to non-stimulated control” value in assay [2] (GDNF 100 ng/ml, temporal regulation) was “timedependent up-regulation”.

(Values after patent publication US9850527B2, “Modified stem-loop oligonucleotide mediated reverse transcription and base-spacing constrained quantitative PCR” (National University of Singapore, priority 2010, dated 2017).)
